The values below are quoted from earlier work in paper PMC10720538, “Population pharmacokinetic modeling and target attainment analyses of rezafungin for the treatment of candidemia and invasive candidiasis” (Antimicrobial Agents and Chemotherapy, 2023).

For series [1] the following is noted: cited from earlier work. The method, then:
FIG 4 Probability of pharmacokinetic/pharmacodynamic target attainment for 400 mg rezafungin against Candida species using CLSI methodology. f, free. TEXT PRINTED IN THE PICTURE: no label printed: Candida albicans − fAUC/MIC Targets: CLSI Target: Stasis 20.5; Candida albicans − fAUC/MIC Targets: CLSI Target: 1-Log Drop in CFU 37.2; Candida glabrata − fAUC/MIC Targets: CLSI Target: Stasis 0.5; Candida glabrata − fAUC/MIC Targets: CLSI Target: 1-Log Drop in CFU 2.94; Candida parapsilosis − fAUC/MIC Targets: CLSI Target: Stasis 18.2; Candida auris − fAUC/MIC Targets: CLSI Target: Stasis 12.1; Can ... || It is noted that the target attainment (TA) methodology uses the simulated fAUC0–168h/MIC ratios; therefore, the value of plasma protein binding (PPB) influences this analysis. The free fraction of rezafungin used in the analysis was 2.6%, obtained from measuring PPB in plasma from healthy subjects. […] While there are still questions in the scientific community about how to verify information from the nonclinical model to support PK/PD-b ... || Using each simulated patient’s Bayesian PK parameters and dose amounts, simulations were performed to obtain plasma concentration profiles. […] For the purposes of target attainment analyses, AUC0–168h after the first dose was used (day 1). […]

For series [2] the following is noted: mouse plasma; cited from earlier work. The method, then:
Using each simulated patient’s Bayesian PK parameters and dose amounts, simulations were performed to obtain plasma concentration profiles. […] For the purposes of target attainment analyses, AUC0–168h after the first dose was used (day 1). Protein binding of 99.2% in mouse plasma and of 97.4% in human (presumed healthy) plasma has been reported ([34]).

Series [3] relates to Candida albicans. The following applies: CLSI MIC, neutropenic mouse, ref Lepak et al., 2018 (e02154-17), cited from earlier work. Here is the method: (§1) TABLE 4 Nonclinical pharmacokinetic/pharmacodynamic targets, by species^a^,^b^,^c | column: Stasis / fAUC0–168h/MIC median; 1-Log drop / fAUC0–168h/MIC median || FIG 4 Probability of pharmacokinetic/pharmacodynamic target attainment for 400 mg rezafungin against Candida species using CLSI methodology. f, free. TEXT PRINTED IN THE PICTURE: no label printed: Candida albicans − fAUC/MIC Targets: CLSI Target: Stasis 20.5; Candida albicans − fAUC/MIC Targets: CLSI Target: 1-Log Drop in CFU 37.2; Candida glabrata − fAUC/MIC Targets: CLSI Target: Stasis 0.5; Candida glabrata − fAUC/MIC Targets: CLSI Target: 1-Log Drop in CFU 2.94; Candida parapsilosis − fAUC/MIC Targets: CLSI Target: Stasis 18.2; Candida auris − fAUC/MIC Targets: CLSI Target: Stasis 12.1; Can ...

The test system of series [4] is Candida auris. Particulars: CLSI MIC, neutropenic mouse, published fAUC0–24 h/MIC target multiplied by 7, ref Lepak et al., 2018 (e01572-18), cited from earlier work. The method, then:
as §1

For series [5], the system named is Candida dubliniensis. Particulars: CLSI MIC, neutropenic mouse, ref Lepak et al., 2019 (e01556-19), cited from earlier work. Here is the method:
as §1

Series [6] has as its system Candida glabrata. Particulars: CLSI MIC, neutropenic mouse, ref Lepak et al., 2018 (e02154-17), cited from earlier work. Here is the method:
as §1

The test system of series [7] is Candida tropicalis. The following applies: CLSI MIC, neutropenic mouse, ref Lepak et al., 2019 (e01556-19), cited from earlier work. The method, then: as §1
Series [8] concerns Candida parapsilosis. The following applies: ref Lepak et al., 2018 (e02154-17), cited from earlier work. The method, then:
TABLE 4 Nonclinical pharmacokinetic/pharmacodynamic targets, by species^a^,^b^,^c | column: Method; Stasis / fAUC0–168h/MIC median || FIG 4 Probability of pharmacokinetic/pharmacodynamic target attainment for 400 mg rezafungin against Candida species using CLSI methodology. f, free. […] This has been observed for other echinocandins and appears to be limited to nonclinical testing as C. parapsilosis responds well clinically to echinocandin therapy despite the intrinsically elevated MICs of this species ([29]). It is believed that the C. parapsilosis strains utilized in the model (more than 80% of which were not suitable) are highly fit or virulent and therefore may result in elevated targets ([30]).

SMILES strings stand for the structures. Read-outs that look alike come from different tables or passages of the source. *1 amine or outer side, *2 acyl side, *3 side chain or, on linkers, in order; H or OH if unused. Where a SMILES comes first, the peptide text is derived from it. Bridges are numbered along the chain shown (N, C = ends). [ ]: non-standard residue; d: D form. The star is where a group is joined. Orn(4R-OH,5R-OCH2CH2NMe3+) = C[N+](C)(C)CCO[C@@H](N[*:3])[C@H](O)C[C@H](N[*:1])C(=O)[*:2]; pTerphenylCO(4''-OnC5H11) = CCCCCOc1ccc(-c2ccc(-c3ccc(C(=O)*)cc3)cc2)cc1; hTyr(3S-OH,4S-OH) = N[C@H](C(=O)O)[C@H](O)[C@@H](O)c1ccc(O)cc1; Pro(3S-OH,4S-Me) = C[C@H]1CN[C@H](C(=O)O)[C@H]1O; Hyp = O=C(O)[C@@H]1C[C@@H](O)CN1

With `CCCCCOc1ccc(-c2ccc(-c3ccc(C(=O)N[C@H]4C[C@@H](O)[C@@H](OCC[N+](C)(C)C)NC(=O)[C@@H]5[C@@H](O)[C@@H](C)CN5C(=O)[C@H]([C@@H](C)O)NC(=O)[C@H]([C@H](O)[C@@H](O)c5ccc(O)cc5)NC(=O)[C@@H]5C[C@@H](O)CN5C(=O)[C@H]([C@@H](C)O)NC4=O)cc3)cc2)cc1` [rezafungin] ({pTerphenylCO(4''-OnC5H11)}-[Orn(4R-OH,5R-OCH2CH2NMe3+)]T[Hyp][hTyr(3S-OH,4S-OH)]T[Pro(3S-OH,4S-Me)]; lactam 1-C), the values for the Protein binding in series [1] (human (presumed healthy) plasma) and in series [2] were 97.4% and 99.2%, respectively. Moreover, in series [1] (plasma from healthy subjects, used to calculate fAUC0–168h), the free fraction was 2.6%. The “1-Log drop, fAUC0–168h/MIC median” value in series [3] (1-log10 drop in CFU) was 37.2; in series [4] (1-log10 drop in CFU), 38.4; in series [5] (1-log10 drop in CFU), 228.3; in series [6] (1-log10 drop in CFU) it was 2.94; in series [7] (1-log10 drop in CFU), 148.9. Also, the “Stasis, fAUC0–168h/MIC median” value in series [3] (net fungal stasis) is reported as 20.5; in series [4] (net fungal stasis), 12.1; in series [5] (net fungal stasis), 35.1; in series [6] (net fungal stasis) it was 0.5; in series [7] (net fungal stasis), 86.5; in series [8] (CLSI MIC, net fungal stasis, neutropenic mouse), 18.2. Moreover, the maximum effect entry in series [8] (nonclinical model) is recorded as “only achieved stasis”.
